Starred links: 1 amine or outer side, 2 acyl side, 3 side chain; linkers in the order of their positions; H or OH if unused. Residues, ends and D or L forms follow the SMILES beside them. *: point of attachment. Mu = morpholinocarbonyl, O=C(N1CCOCC1)*; AMC = Cc1cc(=O)oc2cc(N*)ccc12; Morpholide = C1CN(*)CCO1; CO = O=C([*:1])[*:2]
Experiments:
TSU-Pr1 cells = test: Clonogenic survival of TSU-Pr1 cells after 72 hours exposure to TG analogs; format: cell-based, human; details: TSU-Pr1, 72 hours exposure; mean (n=5) ± standard error; read-out: LC50 (concentration needed to kill 50% of clonogenic cells)
Description: The primary amine-containing thapsigargin analogs of the invention have non-specific toxicity toward cells. This toxicity is measured as the concentration of analog needed to kill 50% of clonogenic cells (LC50). The LC50 of the analogs of the invention is desirably at most 20 μM, preferably at most 5 μM, and more preferably at most 500 nM of analog.
Percentage clonogenic survival of TSU-Pr1 (2×10^5 cells) following 72 hours of exposure to varying concentrations of TG analogs was performed as described in Martikainen et al. Cancer Res., 51, 4693-4700 (1991).
The IC50 results are mean (n=3)±standard error. The LC50 results are mean (n=5)±standard error. The entry “ND” stands for “not determined”. Clonogenic survival not determined above 10 μM for dBTG. Analogs with −boc have a t-butoxycarbonyl (boc) protected amino group.
The androgen responsive PSA-producing LNCaP and androgen independent PSA non-producing TSU-Pr1 are human prostate cancer lines were obtained from ATCC (Rockville, Md.) and maintained by serial passage in RPMI 1640 media containing 10% fetal calf serum with 100 units/ml penicillin G, and 100 units/ml streptomycin sulfate (antibiotics from M.A. Bioproducts, Walkerville, Md.) as standard media in 5% CO2/95% air at 37° C. The origins and characteristics of the LNCaP and TSU-Pr1 cell lines are described in Horoszewicz, et al., Cancer Res., 43:1809-1818, (1980)and Iizumi, et al., J. Urol, 137: 1304-1306, (1987).

[1] = molecular target: T1, PSA (prostate specific antigen) (Homo sapiens, UniProt P07288); test: Cleavage of AMC-labelled peptide substrates by purified PSA (fluorescence of released AMC; Lineweaver-Burke kinetics); format: biochemical; details: 0.2 mM substrate
T1 construct: PSA was purified from human seminal plasma; from tissue; host or cells: human seminal plasma
T1 sequence (P07288 25-261): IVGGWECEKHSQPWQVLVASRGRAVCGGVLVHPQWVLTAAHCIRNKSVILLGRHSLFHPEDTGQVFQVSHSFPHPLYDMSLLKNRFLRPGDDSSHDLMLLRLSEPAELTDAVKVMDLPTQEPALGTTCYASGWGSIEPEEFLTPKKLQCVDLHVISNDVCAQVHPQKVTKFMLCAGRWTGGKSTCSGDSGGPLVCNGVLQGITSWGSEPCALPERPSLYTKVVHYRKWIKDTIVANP
Description: (§1) The peptides discussed herein were custom synthesized by Enzyme Systems Products (Dublin, Calif.) and, after HPLC separation and purification to >95%, the molecular weights were confirmed by mass spectroscopy. All peptides had morpholinocarbonyl protecting the amino terminus and 7-amino-4-methylcoumarin (AMC) attached via an amide bond to the carboxyl group of the carboxy-terminal amino acid. Peptides were first dissolved in distilled water (5 mM) and then diluted into PSA assay buffer (50 mM Tris/0.1M NaCl pH 7.8). The glutamine-AMC peptide had the amino terminus and side chain amine unprotected and was obtained from Bachem (Torrance, Calif.).
(§2) PSA was purified from human seminal plasma as described in Christensson, et al. Eur. J. Biochem. 194:755-765, (1990). Plasmin, urokinase, tissue plasminogen activator (TPA), human plasma and porcine pancreatic kallikrein and a 1-antichymotrypsin were obtained from Calbiochem (San Diego, Calif.). All other proteases were obtained from Sigma Chemical Co. (St. Louis, Mo.). Mouse serum was obtained from East Acres Biologicals (South Bridge, Mass.). Goat and calf sera were obtained from Gibco BRL (Grand Island, N.Y.). Rat serum was obtained in-house from sacrificed animals. Human serum was obtained from volunteers.
(§3) Cleavage was studied by measuring fluorescence change secondary to AMC release. Fluorescence detection was carried out with a Fluoroskan II 96 well fluorometric plate reader (ICN Biomedicals, Costa Mesa, Calif.), with excitation wavelength 355 nm and emission wavelength 460 nm. Data were collected and analyzed using Deltasoft III software (Biometallics, Princeton, N.J.). All reactions were performed at room temperature by the addition of substrate and proteases into PSA buffer, described below, in a final volume of 200 μL. The results were determined from the initial linear increase of fluorescence and were expressed as the picomoles of AMC released per minute based upon comparison to a standard curve of the fluorescence of known amounts of AMC (i.e., fluorescence was linear form 20 to 300 picomoles of AMC). The data were analyzed by Lineweaver-Burke reciprocal plots to determine the Michaelis-Menten constant (i.e., Km) expressed as the amount of substrate needed to saturate half of the enzyme and the catalytic rate constant (i.e., kcat) expressed as the amount of substrate converted to product per time per amount of enzyme.
(§4) Each assay contains 200 picomoles of the particular protease and 0.2 mM concentration of the particular substrate (i.e., 40,000 picomoles/200 μL of assay volume). The amino acid sequences expressed in one letter amino acid code represent the following amino acid sequences in the three letter amino acid code: EHSSKLQ (Glu-His-Ser-Ser-Lys-Leu-Gln; SEQ ID NO:10), QNKISYQ (Gln-Asn-Lys-Ile-Ser-Tyr-Gln; SEQ ID NO:11), ENKISYQ (Glu-Asn-Lys-Ile-Ser-Tyr-Gln; SEQ ID NO:12), and ATKSKQH (Ala-Thr-Lys-Ser-Lys-Gln-His; SEQ ID NO:13). Determinations listed in the table were carried out with substrates at 0.2 mM concentration in the PSA assay buffer (50 mM Tris/0.1M NaCl pH 7.8). The entry “UD” stands for “undetectable” and means that at most, 0.1 pmole of substrate cleavage per minute per 200 pmole protease took place. Asterisks represent experiments not performed. Abbreviations are as follows: PSA (prostate specific antigen), Chymo (chymotrypsin), Urokin (urokinase), TPA (tissue plasminogen activator), Thromb (thrombin), Kallik (human kallikrein, hK1).
The data in Table 2 are the results of kinetic experiments with the peptide substrates used in Example 1. Experimental details are found in Example 1.
The amino acid sequences expressed in one letter amino acid code represent the following amino acid sequences in the three letter amino acid code: EHSSKLQ (Glu-His-Ser-Ser-Lys-Leu-Gln; SEQ ID NO:10), HSSKLQ (His-Ser-Ser-Lys-Leu-Gln; SEQ ID NO:7), SKLQ (Ser-Lys-Leu-Gln; SEQ ID NO:1), and ATKSKQH (Ala-Thr-Lys-Ser-Lys-Gln-His; SEQ ID NO:13). […]

[2] = Stability of PSA substrates in serum (AMC release); format: in vitro ADME; details: 0.2 mM substrate
Source text: as §2, §3
Because the prodrug can be given systemically via the blood, it is useful to determine the stability of the substrates in sera from a variety of species. The substrates and experimental details are found as described in Example 1.
The amino acid sequences expressed in one letter amino acid code represent the following amino acid sequences in the three letter amino acid code: EHSSKLQ (Glu-His-Ser-Ser-Lys-Leu-Gln; SEQ ID NO:10), QNKISYQ (Gln-Asn-Lys-Ile-Ser-Tyr-Gln; SEQ ID NO:11), ENKISYQ (Glu-Asn-Lys-Ile-Ser-Tyr-Gln; SEQ ID NO:12) and ATKSKQH (Ala-Thr-Lys-Ser-Lys-Gln-His; SEQ ID NO:13). Determinations listed in the table were carried out with substrates at 0.2 mM concentration in the PSA assay buffer (50 mM Tris/0.1M NaCl pH 7.8). AMC is 7-amino-4-methylcoumarin. The human serum used was 100% for each assay. The entry “UD” stands for “undetectable”, and means that not more than 0.01 picomole of substrate per minute was cleaved.

[3] = molecular target: T2, tissue plasminogen activator (TPA) (Homo sapiens, UniProt P00750); test: Peptide-AMC cleavage by purified extracellular protease; format: biochemical; details: 0.2 mM substrate, PSA assay buffer pH 7.8
T2 construct: purchased Calbiochem
T2 sequence (P00750 36-562, species assumed): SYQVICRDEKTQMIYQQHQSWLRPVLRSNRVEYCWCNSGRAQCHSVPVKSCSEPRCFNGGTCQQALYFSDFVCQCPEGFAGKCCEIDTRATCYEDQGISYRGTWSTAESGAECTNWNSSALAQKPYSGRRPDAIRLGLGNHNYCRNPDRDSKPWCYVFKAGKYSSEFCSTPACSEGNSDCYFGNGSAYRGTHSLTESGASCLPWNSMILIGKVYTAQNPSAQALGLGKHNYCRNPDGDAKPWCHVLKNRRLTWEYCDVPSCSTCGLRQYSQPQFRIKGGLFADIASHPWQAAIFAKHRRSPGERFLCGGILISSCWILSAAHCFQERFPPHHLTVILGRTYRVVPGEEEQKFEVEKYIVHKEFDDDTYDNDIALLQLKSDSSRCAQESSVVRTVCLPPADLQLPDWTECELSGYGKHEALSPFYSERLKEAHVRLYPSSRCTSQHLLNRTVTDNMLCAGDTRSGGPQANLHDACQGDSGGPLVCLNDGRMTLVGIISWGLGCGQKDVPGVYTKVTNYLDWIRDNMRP
Description: as §1, §2, §3, §4

Plasmin = molecular target: T3, Plasmin (Homo sapiens, UniProt P00747); test: as above; format: biochemical; details: 0.2 mM substrate, PSA assay buffer pH 7.8
T3 construct: purchased Calbiochem
T3 sequence (P00747 581-810 limits assumed, species assumed): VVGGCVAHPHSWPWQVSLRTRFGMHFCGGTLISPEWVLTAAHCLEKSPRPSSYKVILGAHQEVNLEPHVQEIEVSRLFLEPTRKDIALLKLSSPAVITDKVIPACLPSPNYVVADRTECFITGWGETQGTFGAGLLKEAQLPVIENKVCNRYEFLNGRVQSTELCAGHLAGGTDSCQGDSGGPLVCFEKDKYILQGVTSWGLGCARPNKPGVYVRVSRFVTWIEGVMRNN
T3 sequence (P00747 97-580 partner limits assumed, species assumed): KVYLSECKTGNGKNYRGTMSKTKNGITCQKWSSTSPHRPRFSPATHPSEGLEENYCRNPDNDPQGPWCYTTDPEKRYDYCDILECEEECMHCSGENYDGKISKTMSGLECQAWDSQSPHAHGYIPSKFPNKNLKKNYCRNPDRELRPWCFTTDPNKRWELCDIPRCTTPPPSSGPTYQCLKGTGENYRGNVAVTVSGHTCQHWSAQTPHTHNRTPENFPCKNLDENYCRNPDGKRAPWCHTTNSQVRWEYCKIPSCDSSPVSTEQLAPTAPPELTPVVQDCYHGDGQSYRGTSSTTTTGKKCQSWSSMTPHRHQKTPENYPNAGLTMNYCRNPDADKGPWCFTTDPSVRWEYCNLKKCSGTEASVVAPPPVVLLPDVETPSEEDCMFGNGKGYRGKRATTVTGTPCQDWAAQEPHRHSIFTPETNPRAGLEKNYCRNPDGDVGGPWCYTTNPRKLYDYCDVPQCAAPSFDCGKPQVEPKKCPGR
Description: as §1, §2, §3, §4

Trypsin = test: as above; format: biochemical; details: 0.2 mM substrate, PSA assay buffer pH 7.8
Description: as §1, §2, §3, §4

chymotrypsin = molecular target: T4, chymotrypsin (Bos taurus, UniProt P00766); test: as above; format: biochemical; details: 0.2 mM substrate, PSA assay buffer pH 7.8
T4 construct: purchased Sigma Chemical Co
Description: as §1, §2, §3, §4

thrombin = molecular target: T5, thrombin (Homo sapiens, UniProt P00734); test: as above; format: biochemical; details: 0.2 mM substrate, PSA assay buffer pH 7.8
T5 construct: purchased Sigma Chemical Co
Description: as §1, §2, §3, §4

Elastase = test: as above; format: biochemical; details: 0.2 mM substrate, PSA assay buffer pH 7.8
Description: as §1, §2, §3, §4

porcine liver esterase = test: PSA substrate cleavage by purified intracellular protease; format: biochemical; details: 0.2 mM substrate, pH 7.8; SKLQ, KLQ, LQ in 1.4% acetonitrile/buffer, Q-AMC in 0.2% formic acid/buffer
Description: as §3
(§5) A family of peptide substrates based upon the EHSSKLQ (SEQ ID NO:10) sequence was assayed for activity for the intracellular proteases, and the results given in Table 4.
(§6) The amino acid sequences expressed in one letter amino acid code represent the following amino acid sequences in the three letter amino acid code: EHSSKLQ (Glu-His-Ser-Ser-Lys-Leu-Gln; SEQ ID NO:10), The shorter sequences are formed by deleting amino acids from the amino terminal side of the sequence. Determinations listed in the table were carried out with substrates at 0.2 mM concentration in the PSA assay buffer (50 mM Tris/0.1M NaCl pH 7.8), except SKLQ (SEQ ID NO:1), KLQ and LQ, which were carried out in 1.4% acetonitrile/buffer and Q-AMC which was carried out in 0.2% formic acid/buffer, at pH 7.8. The entry “UD” stands for “undetectable” and means that at most, 0.1 pmole of substrate cleavage per minute per 200 pmole protease took place. Asterisks represent experiments not performed. Abbreviations are as follows: PSA (prostate specific antigen), Cath B, C, D (Cathepsins, B, C, D), Esterase (porcine liver esterase).

Cathepsin C = molecular target: T6, Cathepsin C (Homo sapiens, UniProt P53634); test: as above; format: biochemical; details: 0.2 mM substrate, pH 7.8; SKLQ, KLQ, LQ in 1.4% acetonitrile/buffer, Q-AMC in 0.2% formic acid/buffer
T6 construct: purchased Sigma Chemical Co
T6 sequence (P53634 25-463): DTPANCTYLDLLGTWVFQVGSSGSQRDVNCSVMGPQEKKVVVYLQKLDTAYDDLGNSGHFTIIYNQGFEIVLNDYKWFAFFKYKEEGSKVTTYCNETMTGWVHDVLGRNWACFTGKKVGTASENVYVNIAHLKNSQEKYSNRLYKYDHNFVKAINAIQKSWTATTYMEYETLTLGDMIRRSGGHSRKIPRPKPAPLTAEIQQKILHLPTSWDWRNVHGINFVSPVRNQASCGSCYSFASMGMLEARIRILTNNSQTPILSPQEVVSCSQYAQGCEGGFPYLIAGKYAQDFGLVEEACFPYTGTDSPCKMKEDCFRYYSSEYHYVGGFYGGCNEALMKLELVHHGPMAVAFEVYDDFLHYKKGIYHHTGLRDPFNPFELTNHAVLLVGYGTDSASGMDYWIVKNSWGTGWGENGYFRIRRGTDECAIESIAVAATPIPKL
Description: as §3, §5, §6

Cathepsin B = molecular target: T7, Cathepsin B (Homo sapiens, UniProt P07858); test: as above; format: biochemical; details: 0.2 mM substrate, pH 7.8; SKLQ, KLQ, LQ in 1.4% acetonitrile/buffer, Q-AMC in 0.2% formic acid/buffer
T7 construct: purchased Sigma Chemical Co
Description: as §3, §5, §6

In the case of “8-O-(2-[4-t-butoxycarbonylaminophenyl]acetyl)-8-O-debutanoylthapsigargin [AAT-boc]”, the CC50 (TSU-Pr1 cells) is reported as > 10 µM.
For `C/C=C(/C)C(=O)OC1C(C)=C2C(C1OC(=O)CCCCCCC)C(C)(OC(C)=O)CC(OC(=O)Cc1ccc(N)cc1)C1(O)C2OC(=O)C1(C)O` (centres unmarked) [AAT, 8-O-(2-[4-aminophenyl]acetyl)-8-O-debutanoylthapsigargin], the CC50 (TSU-Pr1 cells) was > 10 µM.
`C/C=C(/C)C(=O)OC1C(C)=C2C(C1OC(=O)CCCCCCC)C(C)(OC(C)=O)CC(OC(=O)c1ccc(NC(=O)OC(C)(C)C)cc1)C1(O)C2OC(=O)C1(C)O` (centres unmarked) [ABT-boc, 8-O-(4-t-butoxycarbonylaminobenzoyl)-8-O-debutanoylthapsigargin] gave a CC50 (TSU-Pr1 cells) of 12 ± 0.3 µM.
In the case of `CC[C@H](C)[C@H](NC(=O)[C@H](CCCCN)NC(=O)[C@H](CC(N)=O)NC(=O)[C@H](CCC(N)=O)NC(=O)N1CCOCC1)C(=O)N[C@@H](CO)C(=O)N[C@@H](Cc1ccc(O)cc1)C(=O)N[C@@H](CCC(N)=O)C(=O)Nc1ccc2c(C)cc(=O)oc2c1` [QNKISYQ, Gln-Asn-Lys-Ile-Ser-Tyr-Gln] ({Morpholide-CO}-QNKISYQ-{AMC}), the “Picomoles of substrate cleaved/minute/200 pmoles of indicated protease: PSA” value ([1]; PSA assay buffer pH 7.8, room temperature) is reported as 16.8 picomoles/minute/200 pmoles pr, the “picomles AMC released/minute: Calf” value [2] is reported as “UD (not more than 0.01 picomole of substrate per minute was cleaved)” and the “picomles AMC released/minute: Fetal Calf” value [2] is reported as 11.60 picomoles/minute. For the same compound, the “picomles AMC released/minute: Goat” value [2] was 5.54 picomoles/minute, the “picomles AMC released/minute: Mouse” value [2] was 1.67 picomoles/minute and the “picomles AMC released/minute: Rat” value [2] was 10.7 picomoles/minute. For the same compound, the “picomles AMC released/minute: Human” value ([2]; human serum 100%) was 1.54 picomoles/minute, the “Picomoles of substrate cleaved/minute/200 pmoles of indicated protease: TPA” value [3] was 0.4 picomoles/minute/200 pmoles pr and the “Picomoles of substrate cleaved/minute/200 pmoles of indicated protease: Plasmin” value (Plasmin) was “UD (at most, 0.1 pmole of substrate cleavage per minute per 200 pmole protease took place)”. The “Picomoles of substrate cleaved/minute/200 pmoles of indicated protease: Trypsin” value (Trypsin) was “UD (at most, 0.1 pmole of substrate cleavage per minute per 200 pmole protease took place)”, the “Picomoles of substrate cleaved/minute/200 pmoles of indicated protease: Chymo” value (chymotrypsin) was 9.0 picomoles/minute/200 pmoles pr and the “Picomoles of substrate cleaved/minute/200 pmoles of indicated protease: Thromb” value (thrombin) was 0.4 picomoles/minute/200 pmoles pr. The “Picomoles of substrate cleaved/minute/200 pmoles of indicated protease: Elastase” value (Elastase) was 9.0 picomoles/minute/200 pmoles pr.
For “KLQ: shorter sequence formed by deleting amino acids from the amino terminal side of EHSSKLQ; AMC substrate (Mu-Lys-Leu-Gln-{AMC}; also: AMC substrate)”, the “picomoles of peptide cleaved/min/200 picomoles protease: Esterase” value (porcine liver esterase) was “UD (at most, 0.1 pmole of substrate cleavage per minute per 200 pmole protease took place)”, the “picomoles of peptide cleaved/min/200 picomoles protease: Cath C” value (Cathepsin C) was “UD (at most, 0.1 pmole of substrate cleavage per minute per 200 pmole protease took place)” and the “picomoles of peptide cleaved/min/200 picomoles protease: Cath B” value (Cathepsin B) was 87.0 picomoles/min/200 picomoles pr. The “picomoles of peptide cleaved/min/200 picomoles protease: PSA” value ([1]; pH 7.8, SKLQ, KLQ, LQ in 1.4% acetonitrile/buffer, Q-AMC in 0.2% formic acid/buffer) was 0.4 picomoles/min/200 picomoles pr.

— US6545131B1, “Tissue specific prodrug” (priority 1997, dated 2003)
